# Tested on: Ob/ob mice
# Experiment: In vivo control of glycemia in ob/ob mice
# Settings: oral BID during 8 days, 150 mg/kg, compared to an animal group control
# Protocol: The following biological test allows the determination of the efficacy of compounds of formula (I) onto the control of glycemia on a pharmaceutical animal model.
# All experiments on animals were carried out in accordance with the European animal care guidelines (ETS123).
# Ob/ob mice from CERJ (53940 Le Genest Saint Isle, France) were treated orally with compounds of formula (1) BID during 8 days. At that time, a blood sample was collected and glucose concentration was determined using ABX diagnostic kit.
# Results are given as a percentage of glycemia variation compared to an animal group control.
row,Structure (SMILES),% glycemia variation [%]
1,"O=c1[nH]c2sc(Cl)c(-c3ccc4c(c3O)CCCC4)c2c(O)c1-c1ccccc1 [Compound 12, 2-chloro-4-hydroxy-3-(5-hydroxytetralin-6-yl)-5-phenyl-7H-thieno[2,3-b]pyridin-6-one]",−27
2,"O=c1[nH]c2sc(Cl)c(-c3ccc4c(c3[O-])CCCC4)c2c([O-])c1-c1ccccc1.[Na+].[Na+] [Compound 19, disodium 2-chloro-3-(5-oxidotetralin-6-yl)-6-oxo-5-phenyl-7H-thieno[2,3-b]pyridin-4-olate]",−41

# Tested on: ob/ob and db/db mice
# Experiment: not given
# Settings: 8 day administration; cited from earlier work
row,Structure (SMILES),reduces blood glucose [%]
1,NC(=O)c1ncn([C@@H]2O[C@H](CO)[C@@H](O)[C@H]2O)c1N [AICAR],35

# Tested on: AMPK
# Experiment: AMPK enzymatic activity (Delfia technology, AMARA peptide substrate)
# Assay type: biochemical
# Settings: AMP at 200 μM as reference
# Protocol: The following biological test allows the determination of the efficacy of compounds of formula (I) onto AMPK protein.
# AMPK enzyme activities were assayed by using a Delfia technology. AMPK enzyme activities were carried out in microtiter plates in the presence of a synthetic peptide substrate (AMARAASAAALARRR, the “AMARA” peptide) and activators in serial dilutions. Reactions were initiated by the addition of AMPK. Enzyme activity was assayed by using an anti-phosphoserine antibody to measure the quantity of phosphate incorporated into the AMARAA.
# N°: Number of the molecule
# Activity: Ratio between the % of control (basal activity) of compound of formula (1) at 30 μM and the % of control (basal activity) of AMP (natural substrate) at 200 μM.
row,Structure (SMILES),Activity: Ratio between the % of control (basal activity) of compound at 30 μM and the % of control (basal activity) of AMP at 200 μM
1,"COc1ccc(-c2c(O)c3c(-c4ccc5c(c4)CCC5)c(Cl)sc3[nH]c2=O)cc1 [Compound 1, 2-chloro-4-hydroxy-3-indan-5-yl-5-(4-methoxyphenyl)-7H-thieno[2,3-b]pyridin-6-one]",C (C>130%)
2,"O=c1[nH]c2sc(Cl)c(-c3ccc4c(c3O)CCC4)c2c(O)c1-c1ccccc1 [Compound 2, 2-chloro-4-hydroxy-3-(4-hydroxyindan-5-yl)-5-phenyl-7H-thieno[2,3-b]pyridin-6-one]",B (110%<B<130%)
3,"O=c1[nH]c2sc(Cl)c(-c3ccc4c(c3)CCC4)c2c(O)c1-c1ccccc1 [Compound 3, 2-chloro-4-hydroxy-3-indan-5-yl-5-phenyl-7H-thieno[2,3-b]pyridin-6-one]",B (110%<B<130%)
4,"O=c1[nH]c2sc(Cl)c(-c3ccc4c(c3)CCC4)c2c(O)c1-c1ccc(F)cc1 [Compound 4, 2-chloro-5-(4-fluorophenyl)-4-hydroxy-3-indan-5-yl-7H-thieno[2,3-b]pyridin-6-one]",B (110%<B<130%)
5,"COc1cccc(-c2c(O)c3c(-c4ccc5c(c4)CCC5)c(Cl)sc3[nH]c2=O)c1 [Compound 5, 2-chloro-4-hydroxy-3-indan-5-yl-5-(3-methoxyphenyl)-7H-thieno[2,3-b]pyridin-6-one]",C (C>130%)
6,"N#Cc1cccc(-c2c(O)c3c(-c4ccc5c(c4)CCC5)c(Cl)sc3[nH]c2=O)c1 [Compound 6, 3-(2-chloro-4-hydroxy-3-indan-5-yl-6-oxo-7H-thieno[2,3-b]pyridin-5-yl)benzonitrile]",C (C>130%)
7,"Cc1cccc(-c2c(O)c3c(-c4ccc5c(c4)CCC5)c(Cl)sc3[nH]c2=O)c1 [Compound 7, 2-chloro-4-hydroxy-3-indan-5-yl-5-(m-tolyl)-7H-thieno[2,3-b]pyridin-6-one]",C (C>130%)
8,"O=c1[nH]c2sc(Cl)c(-c3ccc4c(c3O)CCC4)c2c(O)c1-c1ccc(F)cc1 [Compound 8, 2-chloro-5-(4-fluorophenyl)-4-hydroxy-3-(4-hydroxyindan-5-yl)-7H-thieno[2,3-b]pyridin-6-one]",C (C>130%)
9,"O=c1[nH]c2sc(Cl)c(-c3ccc4c(c3O)CCC4)c2c(O)c1-c1cccc(F)c1 [Compound 9, 2-chloro-5-(3-fluorophenyl)-4-hydroxy-3-(4-hydroxyindan-5-yl)-7H-thieno[2,3-b]pyridin-6-one]",C (C>130%)
10,"O=c1[nH]c2sc(Cl)c(-c3ccc4c(c3)CCC4)c2c(O)c1-c1cccnc1 [Compound 10, 2-chloro-4-hydroxy-3-indan-5-yl-5-(3-pyridyl)-7H-thieno[2,3-b]pyridin-6-one]",A (A<110%)
11,"O=c1[nH]c2sc(Cl)c(-c3ccc4c(c3O)CCC4)c2c(O)c1-c1ccccc1F [Compound 11, 2-chloro-5-(2-fluorophenyl)-4-hydroxy-3-(4-hydroxyindan-5-yl)-7H-thieno[2,3-b]pyridin-6-one]",B (110%<B<130%)
12,"O=c1[nH]c2sc(Cl)c(-c3ccc4c(c3O)CCCC4)c2c(O)c1-c1ccccc1 [Compound 12, 2-chloro-4-hydroxy-3-(5-hydroxytetralin-6-yl)-5-phenyl-7H-thieno[2,3-b]pyridin-6-one]",C (C>130%)
13,"O=c1[nH]c2sc(Cl)c(-c3ccc4c(c3)CCCC4)c2c(O)c1-c1cccnc1 [Compound 13, 2-chloro-4-hydroxy-5-(3-pyridyl)-3-tetralin-6-yl-7H-thieno[2,3-b]pyridin-6-one]",C (C>130%)
14,"N#Cc1cccc(-c2c(O)c3c(-c4ccc5c(c4)CCCC5)c(Cl)sc3[nH]c2=O)c1 [Compound 15, 3-(2-chloro-4-hydroxy-6-oxo-3-tetralin-6-yl-7H-thieno[2,3-b]pyridin-5-yl)benzonitrile]",B (110%<B<130%)
15,"[Na+].[Na+].[Na+].[O-]c1nc2sc(Cl)c(-c3ccc4c(c3[O-])CCCC4)c2c([O-])c1-c1ccccc1 [Compound 16, trisodium 2-chloro-3-(5-oxidotetralin-6-yl)-5-phenyl-thieno[2,3-b]pyridine-4,6-diolate]",B (110%<B<130%)
16,"O=c1[nH]c2sc(Cl)c(-c3ccc4c(c3)CCCC4)c2c(O)c1-c1ccccc1 [Compound 17, 2-chloro-4-hydroxy-5-phenyl-3-tetralin-6-yl-7H-thieno [2,3-b]pyridin-6-one]",A (A<110%)
17,"O=c1[nH]c2sc(Cl)c(-c3ccc4c(c3O)CCCC4)c2c(O)c1-c1ccc(F)cc1 [Compound 18, 2-chloro-5-(4-fluorophenyl)-4-hydroxy-3-(5-hydroxytetralin-6-yl)-7H-thieno[2,3-b]pyridin-6-one]",B (110%<B<130%)
18,"O=c1[nH]c2sc(Cl)c(-c3ccc4c(c3[O-])CCCC4)c2c([O-])c1-c1ccccc1.[Na+].[Na+] [Compound 19, disodium 2-chloro-3-(5-oxidotetralin-6-yl)-6-oxo-5-phenyl-7H-thieno[2,3-b]pyridin-4-olate]",C (C>130%)
19,"Cc1cccc(-c2c(O)c3c(-c4ccc5c(c4O)CCCC5)c(Cl)sc3[nH]c2=O)c1 [Compound 20, 2-chloro-4-hydroxy-3-(5-hydroxytetralin-6-yl)-5-(m-tolyl)-7H-thieno[2,3-b]pyridin-6-one]",C (C>130%)
20,"Cc1ccc(-c2c(O)c3c(-c4ccc5c(c4O)CCCC5)c(Cl)sc3[nH]c2=O)cc1 [Compound 21, 2-chloro-4-hydroxy-3-(5-hydroxytetralin-6-yl)-5-(p-tolyl)-7H-thieno[2,3-b]pyridin-6-one]",C (C>130%)
